Laboratory results taken from the METLIN SMRT retention time set (Domingo-Almenara et al. 2019).

test: gradient 5% acetonitrile 3 min, to 50% in 2 min, to 85% in 15 min, held 3 min, 100 µL/min; conditions: column: Zorbax Extend-C18 2.1 x 50 mm; eluents: water / acetonitrile, 0.1% formic acid
Method in brief: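 Using water and acetonitrile that each contained 0.1% formic acid, mixtures of ~100 pure standards were separated at 100 μL/min on a Zorbax Extend-C18 column (2.1 × 50 mm, 1.8 μm). The HPLC fed a quadrupole time-of-flight mass spectrometer working in positive and negative ionization mode, with dead and dwell volumes of 40 μL and 900 μL. Data were acquired over 3 months. Retention time was read from computationally picked adduct peaks after manual inspection of each.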

First: COc1cc2c(cc1O)CC1c3c(cc(O)c(OC)c3-2)CCN1C (centres undefined)
Second: COc1ccc(NC(=O)C2CCc3sc(C(=O)N4CCCC4)cc3C2)cc1F (centres undefined)
The RP-LC retention time of the first is lower: 628 s for the first, 779 s for the second.

Going from Cc1oc(-c2[nH]ncc2C(=O)N(C)C)cc1S(=O)(=O)NCc1ccccc1Cl to CCc1ccc(S(=O)(=O)NCc2c(-c3ccccc3)nc3sc(C)nn23)cc1, the RP-LC retention time rises from 693 s to 943 s.

First: CCOc1ccc(CNc2ccc3[nH]c(=O)[nH]c3c2)cc1
Second: CCOc1ccc(-c2cc(C(F)(F)F)nn2-c2nc(-c3ccc(F)cc3)cs2)cc1
The RP-LC retention time of the first is lower: 605 s for the first, 882 s for the second.

Compared with COc1cc(-n2c(=O)c3ccccc3n(Cc3ccccc3F)c2=O)cc(OC)c1OC, COc1cccc(-c2ccc(=O)n(Cc3nc(-c4ccc(OC)c(OC)c4)no3)n2)c1 is higher in RP-LC retention time: 850 s for the first, 887 s for the second.

Going from CCCn1cc(S(=O)(=O)N2CCN(c3cccc(Cl)c3)CC2)c2cccnc21 to COc1cccc(Cn2cc(S(=O)(=O)N3CCCCCC3)ccc2=O)c1, the RP-LC retention time rises from 761 s to 895 s.

First: CC(=O)N1CCC2(CC1)Oc1ccccc1C1CC(c3ccc4c(c3)OCO4)=NN12 (centres undefined)
Second: Cc1ccc(C)c(N2CCN(c3ccnc(SCC(=O)NCc4ccc5c(c4)OCO5)n3)CC2)c1
The RP-LC retention time of the first is lower: 783 s for the first, 859 s for the second.

Compared with CN(C)C(=O)c1csc(S(=O)(=O)N2CCC(C(=O)Nc3ccccc3)CC2)c1, CC(C)c1ccc(NC(=O)C2CCN(S(=O)(=O)c3ccc4c(c3)sc(=O)n4C)CC2)cc1 is higher in RP-LC retention time: 752 s for the first, 993 s for the second.

COc1ccc(NC(=O)Cc2csc3nc(-c4cccc(Cl)c4)cn23)cc1OC and CCc1noc(NC(C)=O)c1-c1ccc(OC)c(S(=O)(=O)Nc2cccc(Cl)c2)c1 are the same in RP-LC retention time: 831 s for the first, 831 s for the second.

First: Cc1ccsc1CN1CCCC(c2nc(-c3cccnc3)n[nH]2)C1 (centres undefined)
Second: COc1ccccc1-c1nc2nccc(-c3cccnc3)n2n1
The RP-LC retention time of the first is lower: 561 s for the first, 655 s for the second.

Going from CN(CCNc1nc2ccncc2n(Cc2ccccc2)c1=O)C1CCCCC1 to O=c1c(NCCN2CCCC2)nc2ccncc2n1Cc1ccccc1, the RP-LC retention time rises from 573 s to 876 s.

Compared with CCOC(=O)c1c(C)[nH]c(C(=O)N2CCC(CC(=O)N3CCCCC3)CC2)c1C, CC(C)C(=O)N1CCc2c(c(C(=O)N3CCC(C(=O)N4CCC5(CC4)OCCO5)CC3)nn2C)C1 is lower in RP-LC retention time: 741 s for the first, 626 s for the second.

Going from COC(=O)c1cnc2nc(C)ccc2c1Nc1ccc(C)cc1Cl to COc1ccc(Cl)cc1NC(=O)NCCc1cn(C)c2ncccc12, the RP-LC retention time rises from 752 s to 756 s.

First: Cc1nn(-c2ccccc2)c2c1-c1sc(C(=O)N3CCN(c4ccccn4)CC3)cc1CC2
Second: CCc1nnc2nc(N3CCN(C(=O)c4cccc(N(C)C)c4)CC3)cc(C)n12
The RP-LC retention time of the first is higher: 671 s for the first, 574 s for the second.

Going from Cc1sc(NC(=O)c2ccccc2Br)nc1-c1ccc2c(c1)N(C)C(=O)CO2 to C=CCN1C(=O)COc2ccc(-c3nc(NC(=O)c4cc(OC)cc(OC)c4)sc3C)cc21, the RP-LC retention time rises from 960 s to 1090 s.

Going from Cn1cccc(C(=O)NC2CC(=O)N(C3CC3)C2)c1=O (centres undefined) to COc1cccc(N2CC(C(=O)Nc3nnc4n3CCS4)CC2=O)c1 (centres undefined), the RP-LC retention time rises from 547 s to 586 s.

First: O=c1c2cc(-c3cccs3)nn2cnn1Cc1nc(-c2ccccc2Cl)no1
Second: Cc1ccc(-c2noc(CN3N=NC4C(=O)N(c5ccc(Br)cc5)C(=O)C43)n2)cc1C (centres undefined)
The RP-LC retention time of the first is lower: 1040 s for the first, 1130 s for the second.

First: Cc1cc(C)n(CC(=O)N2CCN(c3ccccc3O)CC2)n1
Second: Cc1ccnc(N2CCC(C(=O)N3CCN(Cc4ccc5c(c4)OCO5)CC3)CC2)n1
The RP-LC retention time of the first is higher: 604 s for the first, 590 s for the second.

First: O=C(CSc1nc(-c2cccc([N+](=O)[O-])c2)cs1)NCc1ccccc1
Second: CCn1cc(-c2nc(CC(=O)NCc3ccccc3)cs2)c2cccnc21
The RP-LC retention time of the first is higher: 890 s for the first, 840 s for the second.

First: CN(C)c1cc(N2CCCC(NC(=O)Cc3ccsc3)C2)ncn1 (centres undefined)
Second: COc1ccc(CNC(=O)C2CCCN(c3nccnc3Sc3ccc(C)cc3)C2)c(OC)c1 (centres undefined)
The RP-LC retention time of the first is higher: 870 s for the first, 792 s for the second.

Compared with COc1ccc2c(c1)C1(CCN(S(=O)(=O)c3cccc(C)c3)C1)C(=O)N2C (centres undefined), COc1cccc(S(=O)(=O)N2CCc3c(c(-c4nnc(-c5ccccc5)o4)nn3C)C2)c1 is lower in RP-LC retention time: 941 s for the first, 933 s for the second.

Compared with CC1CCc2nc(NC(=O)c3cc(Cl)sc3Cl)sc2C1 (centres undefined), COc1cc(Cl)ccc1C(=O)NC1CCN(c2cc(-c3cccs3)[nH]n2)C1 (centres undefined) is lower in RP-LC retention time: 1170 s for the first, 795 s for the second.

Going from CCCN(CC1CC1)C(=O)[C@@H]1COCC(=O)N1Cc1ccccc1 to O=C(CN1CCCC(COCc2ccccc2)C1)Nc1nccs1 (centres undefined), the RP-LC retention time falls from 818 s to 570 s.

First: CCOC(=O)c1cccc(NC(=O)C2CCCN(c3ccc(=O)n(-c4cccc(Cl)c4)n3)C2)c1 (centres undefined)
Second: Cc1noc(C)c1CCNC(=O)C1CCCN(c2nc3ccccc3n(Cc3ccccc3)c2=O)C1 (centres undefined)
The RP-LC retention time of the first is higher: 994 s for the first, 974 s for the second.

First: CC(C)NC(=O)C1CCCN(C(=O)Nc2ccc(S(=O)(=O)N3CCCCCC3)s2)C1 (centres undefined)
Second: CS(=O)(=O)N1CCC(OC2CCN(C(=O)Nc3ccccc3)CC2)CC1
The RP-LC retention time of the first is higher: 827 s for the first, 709 s for the second.

First: COc1ccccc1NC(=O)Cn1c(C)cc(-c2nnc(-c3ccccc3)o2)c1C
Second: Cc1ccc(CNc2nc(-c3nnc(-c4ccccc4)o3)nc3ccccc23)o1
The RP-LC retention time of the first is lower: 988 s for the first, 991 s for the second.

Compared with Cc1cc(C)cc(NC(=O)c2cccn2Cc2noc(C)n2)c1, CCc1cc(=O)n(CC(=O)Nc2cc(C)cc(C)c2)c(N2CCOCC2)n1 is lower in RP-LC retention time: 928 s for the first, 802 s for the second.

Going from COc1cccc(-c2nc(NCc3ccncc3)ncc2C(=O)O)c1 to COc1ccc(CNC(=O)c2sc(-c3cn(C)c4ncccc34)nc2C)cc1, the RP-LC retention time rises from 577 s to 958 s.

Going from CN(C)[C@@H]1CN(C(=O)c2cccc(Br)c2)C[C@H]1CO to CCc1ccccc1NC(=O)N1C[C@@H](F)C[C@H]1C(=O)N1CCc2ccccc2C1, the RP-LC retention time rises from 573 s to 811 s.

Going from CC(C)CC(=O)N1CCc2[nH]nc(C(=O)NCCCc3ccccc3)c2C1 to Cc1ccc(NC(=O)Cn2c(C(C)C)nc3c(c2=O)CCN(Cc2ccccc2)C3)cc1C, the RP-LC retention time falls from 795 s to 761 s.

Going from CCCNC(=O)CCNc1c(-c2ccc(F)cc2)nc2cnccn12 to CCc1nccn1Cc1nc(-c2ccc(F)cc2)no1, the RP-LC retention time falls from 648 s to 625 s.

First: O=C(Cc1cccc(F)c1)N1CCCC1c1nc(-c2ccc(F)cc2)no1 (centres undefined)
Second: O=C(COc1ccc(Cl)cc1)N1CCC(c2nnc(-c3ccc(F)cc3)o2)CC1
The RP-LC retention time of the first is higher: 1010 s for the first, 831 s for the second.

First: CC(=O)NCC1CNCC12CCCCC2 (centres undefined)
Second: Cc1nc(C)c(C(=O)N2CCCC2c2nc(CCOCC3CCCC3)no2)s1 (centres undefined)
The RP-LC retention time of the first is lower: 509 s for the first, 905 s for the second.

Going from COc1ccc(-c2nnc(-c3ccc(Cl)c(S(=O)(=O)N4CCCCC4)c3)o2)cc1 to Cc1cccc(-c2nnc(-c3cccc(S(=O)(=O)N4CCOCC4)c3)o2)c1, the RP-LC retention time falls from 1100 s to 885 s.

First: CCc1noc(-c2ccnc(-n3cnc(C(=O)Nc4ccc(F)cc4C)c3)c2)n1
Second: Cc1nc(-c2ccncc2)cc2nn(CC(=O)Nc3ccc(F)c(Cl)c3)c(=O)n12
The RP-LC retention time of the first is higher: 990 s for the first, 679 s for the second.

Going from Clc1ccccc1CSc1nnc(-c2ccc(Br)cc2)o1 to Cc1ccc(C)c(S(=O)(=O)N2CCc3c(c(-c4nnc(-c5ccccc5)o4)nn3C)C2)c1, the RP-LC retention time falls from 1400 s to 1020 s.

Compared with Cc1c(C(=O)NC2CCCC2)cnn1-c1ccc(-c2nc(C(C)C)no2)cn1, Cc1cccc(NC(=O)c2cn3c(n2)CCCC3)c1C is lower in RP-LC retention time: 741 s for the first, 603 s for the second.

Going from CC(C)N1CCN(C(=O)c2nc(N3CCSCC3)c3cnn(C)c3n2)CC1 to CC(C)CNC(=O)C1CCN(c2nccn3nc(-c4cccs4)cc23)CC1, the RP-LC retention time falls from 577 s to 561 s.

First: Cc1ccc(-c2cc(C(=O)NCCc3ccc(S(N)(=O)=O)cc3)c(C)[nH]2)cc1C
Second: CCCN1C(=O)CCc2cc(NS(=O)(=O)c3ccc(CC)cc3)ccc21
The RP-LC retention time of the first is lower: 794 s for the first, 907 s for the second.

Going from O=C(COc1ccc(Cl)cc1Cl)NCC1CCN(C(=O)Oc2ccccc2)CC1 to Cc1noc(CNC(=O)C2CCN(C(=O)Nc3ccccc3C(F)(F)F)CC2)n1, the RP-LC retention time falls from 987 s to 647 s.

Going from COc1nn(C)cc1C(=O)Nc1nnc(-c2csc(C)n2)o1 to Cc1noc(-c2cc(=O)n(CC(=O)NCc3ccc4c(c3)OCO4)c3ccccc23)n1, the RP-LC retention time rises from 578 s to 802 s.

Going from COCCCNC(=O)Cn1c(=O)n(-c2ccc(C)cc2)c2ncccc21 to Cc1ccc(N2CC(c3noc(COc4cccc(C)c4)n3)CC2=O)cc1 (centres undefined), the RP-LC retention time rises from 692 s to 1050 s.

Going from CCCCCCCC1(C)NC(=O)NC1=O (centres undefined) to Cc1ccc(Cl)c2c1NC(=O)C2(O)CC(=O)c1ccc(F)cc1 (centres undefined), the RP-LC retention time falls from 817 s to 786 s.

Compared with CCOc1ccc(NC(=O)C2CCN(S(=O)(=O)c3cn(C(C)C)cn3)CC2)cc1, Cc1ccc(C)c(Cn2nc3c(S(=O)(=O)N4CCCCCC4)cccn3c2=O)c1 is higher in RP-LC retention time: 775 s for the first, 1050 s for the second.

Compared with Cc1[nH]c(=O)[nH]c(=O)c1S(=O)(=O)N1CCCC1, CCCc1cnc2c(c1SC(C(C)=O)C(=O)N(C)C)c(=O)n(C)c(=O)n2C (centres undefined) is higher in RP-LC retention time: 583 s for the first, 720 s for the second.

Work on COc1ccc(-n2cc(C(=O)OCCc3ccccn3)c3ccccc3c2=O)cc1 yielded an RP-LC retention time of 714 s.
